≈ marks a conversion by molar mass, not a printed value.
Tests used:
Type in all cases: functional
[1] = system: Staphylococcus aureus; assay: Antimicrobial activity against Staphylococcus aureus ATCC 29213 after 16 to 22 hrs by broth microdilution method
[2] = system: Streptococcus pneumoniae; assay: Antimicrobial activity against erythromycin-susceptible Streptococcus pneumoniae after 16 to 22 hrs by broth microdilution method
[3] = system: Streptococcus pneumoniae; assay: Antimicrobial activity against macrolide-resistant erythromycin-Streptococcus pneumoniae after 16 to 22 hrs by broth microdilution method
[4] = system: Streptococcus pyogenes; assay: Antimicrobial activity against erythromycin-susceptible Streptococcus pyogenes after 16 to 22 hrs by broth microdilution method
[5] = system: Streptococcus pyogenes; assay: Antimicrobial activity against macrolide-resistant erythromycin-Streptococcus pyogenes after 16 to 22 hrs by broth microdilution method
[6] = system: Moraxella catarrhalis; assay: Antimicrobial activity against Moraxella catarrhalis ATCC 23246 after 16 to 22 hrs by broth microdilution method
[7] = system: Haemophilus influenzae; assay: Antimicrobial activity against Haemophilus influenzae ATCC 49247 after 16 to 22 hrs by broth microdilution method
[8] = system: Enterococcus faecalis; assay: Antimicrobial activity against Enterococcus faecalis ATCC 29212 after 16 to 22 hrs by broth microdilution method
[9] = system: Escherichia coli; assay: Antimicrobial activity against Escherichia coli ATCC 25922 after 16 to 22 hrs by broth microdilution method
[10] = Staphylococcus aureus, ATCC 29213, read-out: MIC
[11] = Streptococcus pneumoniae, read-out: MIC
[12] = Streptococcus pyogenes, read-out: MIC
[13] = Haemophilus influenzae, ATCC 49247, read-out: MIC
[14] = Escherichia coli, ATCC 25922, read-out: MIC

Q: For `CC[C@H]1OC(=O)[C@H](C)[C@@H](O)[C@H](C)[C@@H](O[C@@H]2O[C@H](C)C[C@H](N(C)C)[C@H]2O)[C@](C)(O)C[C@@H](C)CN(CCCNC(=O)Nc2cccc3ccccc23)[C@H](C)[C@@H](O)[C@]1(C)O`, which MIC [1, 10] is on record?
A: > 64 µg/mL

Q: And the MIC [2, 11]?
A: 1 µg/mL (≈ 1.25 µM)

Q: And the MIC [3, 11]?
A: 8 µg/mL (≈ 9.96 µM)

Q: What about the MIC [4, 12] of the same molecule?
A: 2 µg/mL (≈ 2.49 µM)

Q: What about the MIC [5, 12] of the same molecule?
A: 16 µg/mL (≈ 19.9 µM)

Q: And the MIC [6]?
A: 2 µg/mL (≈ 2.49 µM)

Q: And the MIC [7, 13]?
A: 2 µg/mL (≈ 2.49 µM)

Q: And the MIC [8]?
A: 32 µg/mL (≈ 39.8 µM)

Q: What about the MIC [9, 14] of the same molecule?
A: 8 µg/mL (≈ 9.96 µM)

Q: How did the MIC [1, 10] turn out when `CC[C@H]1OC(=O)[C@H](C)[C@@H](O)[C@H](C)[C@@H](O[C@@H]2O[C@H](C)C[C@H](N(C)C)[C@H]2O)[C@](C)(O)C[C@@H](C)CN(CCCNC(=S)Nc2cccc3ccccc23)[C@H](C)[C@@H](O)[C@]1(C)O` was run?
A: > 64 µg/mL

Q: And the MIC [2, 11]?
A: 1 µg/mL (≈ 1.22 µM)

Q: What about the MIC [3, 11] of the same molecule?
A: 2 µg/mL (≈ 2.44 µM)

Q: And the MIC [4, 12]?
A: 8 µg/mL (≈ 9.77 µM)

Q: And the MIC [5, 12]?
A: 64 µg/mL (≈ 78.1 µM)

Q: What about the MIC [6] of the same molecule?
A: 0.5 µg/mL (≈ 0.61 µM)

Q: What about the MIC [7, 13] of the same molecule?
A: 4 µg/mL (≈ 4.88 µM)

Q: What about the MIC [8] of the same molecule?
A: 32 µg/mL (≈ 39.1 µM)

Q: What about the MIC [9, 14] of the same molecule?
A: 16 µg/mL (≈ 19.5 µM)

Q: For `CC[C@H]1OC(=O)[C@H](C)[C@@H](O)[C@H](C)[C@@H](O[C@@H]2O[C@H](C)C[C@H](N(C)C)[C@H]2O)[C@](C)(O)C[C@@H](C)CN(CCCNC(=S)NCCc2ccccc2)[C@H](C)[C@@H](O)[C@]1(C)O`, which MIC [1, 10] is on record?
A: > 64 µg/mL

Q: And the MIC [2, 11]?
A: 4 µg/mL (≈ 5.02 µM)

Q: What about the MIC [3, 11] of the same molecule?
A: 16 µg/mL (≈ 20.1 µM)

Q: What about the MIC [4, 12] of the same molecule?
A: 32 µg/mL (≈ 40.1 µM)

Q: What about the MIC [5, 12] of the same molecule?
A: 64 µg/mL (≈ 80.3 µM)

Q: And the MIC [6]?
A: 4 µg/mL (≈ 5.02 µM)

Q: What about the MIC [7, 13] of the same molecule?
A: 16 µg/mL (≈ 20.1 µM)

Q: What about the MIC [8] of the same molecule?
A: 64 µg/mL (≈ 80.3 µM)

Q: And the MIC [9, 14]?
A: 64 µg/mL (≈ 80.3 µM)

Q: Which results are given for `CC[C@H]1OC(=O)[C@H](C)[C@@H](O)[C@H](C)[C@@H](O[C@@H]2O[C@H](C)C[C@H](N(C)C)[C@H]2O)[C@](C)(O)C[C@@H](C)CN(CCCN(CCC#N)C(=O)Nc2cccc3ccccc23)[C@H](C)[C@@H](O)[C@]1(C)O`?
A: MIC [1, 10]: > 64 µg/mL; MIC [2, 11]: 16 µg/mL (≈ 18.7 µM); MIC [3, 11]: 64 µg/mL (≈ 74.8 µM); MIC [4, 12]: 16 µg/mL (≈ 18.7 µM); MIC [5, 12]: 64 µg/mL (≈ 74.8 µM); MIC [6]: 8 µg/mL (≈ 9.34 µM); MIC [7, 13]: 32 µg/mL (≈ 37.4 µM); MIC [8]: > 64 µg/mL; MIC [9, 14]: 64 µg/mL (≈ 74.8 µM)

Q: How did the MIC [1, 10] turn out when `CC[C@H]1OC(=O)[C@H](C)[C@@H](O)[C@H](C)[C@@H](O[C@@H]2O[C@H](C)C[C@H](N(C)C)[C@H]2O)[C@](C)(O)C[C@@H](C)CN(CCCN(CCC#N)C(=O)Nc2ccc3ccccc3c2)[C@H](C)[C@@H](O)[C@]1(C)O` was run?
A: > 64 µg/mL

Q: And the MIC [3, 11]?
A: 4 µg/mL (≈ 4.67 µM)

Q: What about the MIC [4, 12] of the same molecule?
A: 8 µg/mL (≈ 9.34 µM)

Q: What about the MIC [5, 12] of the same molecule?
A: 16 µg/mL (≈ 18.7 µM)

Q: What about the MIC [6] of the same molecule?
A: 2 µg/mL (≈ 2.34 µM)

Q: And the MIC [7, 13]?
A: 2 µg/mL (≈ 2.34 µM)

Q: What about the MIC [8] of the same molecule?
A: 32 µg/mL (≈ 37.4 µM)

Q: And the MIC [9, 14]?
A: 16 µg/mL (≈ 18.7 µM)

Q: With `CC[C@H]1OC(=O)[C@H](C)[C@@H](O)[C@H](C)[C@@H](O[C@@H]2O[C@H](C)C[C@H](N(C)C)[C@H]2O)[C@](C)(O)C[C@@H](C)CN(CCCN(CCC#N)C(=O)Nc2ccc(Cl)cc2Cl)[C@H](C)[C@@H](O)[C@]1(C)O` as the molecule, how does the MIC [1, 10] read?
A: > 64 µg/mL

Q: And the MIC [3, 11]?
A: 8 µg/mL (≈ 9.14 µM)

Q: What about the MIC [4, 12] of the same molecule?
A: > 64 µg/mL

Q: What about the MIC [6] of the same molecule?
A: 8 µg/mL (≈ 9.14 µM)

Q: What about the MIC [7, 13] of the same molecule?
A: 16 µg/mL (≈ 18.3 µM)

Q: And the MIC [8]?
A: > 64 µg/mL

Q: And the MIC [9, 14]?
A: > 64 µg/mL

Q: With `CC[C@H]1OC(=O)[C@H](C)[C@@H](O)[C@H](C)[C@@H](O[C@@H]2O[C@H](C)C[C@H](N(C)C)[C@H]2O)[C@](C)(O)C[C@@H](C)CN(CCCN(CCC#N)C(=S)NCc2ccccc2)[C@H](C)[C@@H](O)[C@]1(C)O` as the molecule, how does the MIC [1, 10] read?
A: > 64 µg/mL

Q: What about the MIC [3, 11] of the same molecule?
A: 16 µg/mL (≈ 19.1 µM)

Q: And the MIC [4, 12]?
A: > 64 µg/mL

Q: What about the MIC [6] of the same molecule?
A: 2 µg/mL (≈ 2.39 µM)

Q: And the MIC [7, 13]?
A: 8 µg/mL (≈ 9.57 µM)

Q: And the MIC [8]?
A: > 64 µg/mL

Q: And the MIC [9, 14]?
A: > 64 µg/mL

Q: How did the MIC [1, 10] turn out when `CC[C@H]1OC(=O)[C@H](C)[C@@H](O)[C@H](C)[C@@H](O[C@@H]2O[C@H](C)C[C@H](N(C)C)[C@H]2O)[C@](C)(O)C[C@@H](C)CN(CCCN(CCC#N)C(=S)NCCc2ccccc2)[C@H](C)[C@@H](O)[C@]1(C)O` was run?
A: > 64 µg/mL

Q: And the MIC [3, 11]?
A: 16 µg/mL (≈ 18.8 µM)

Q: What about the MIC [4, 12] of the same molecule?
A: > 64 µg/mL

Q: What about the MIC [6] of the same molecule?
A: 8 µg/mL (≈ 9.41 µM)

Q: And the MIC [7, 13]?
A: 32 µg/mL (≈ 37.6 µM)

Q: And the MIC [8]?
A: > 64 µg/mL

Q: And the MIC [9, 14]?
A: > 64 µg/mL

Q: How did the MIC [1, 10] turn out when `CC[C@H]1OC(=O)[C@H](C)[C@@H](O)[C@H](C)[C@@H](O[C@@H]2O[C@H](C)C[C@H](N(C)C)[C@H]2O)[C@](C)(O)C[C@@H](C)CN(CCCN(CCC#N)C(=S)NCCCc2ccccc2)[C@H](C)[C@@H](O)[C@]1(C)O` was run?
A: > 64 µg/mL

Q: And the MIC [3, 11]?
A: 16 µg/mL (≈ 18.5 µM)

Q: And the MIC [4, 12]?
A: 32 µg/mL (≈ 37 µM)

Q: What about the MIC [5, 12] of the same molecule?
A: 64 µg/mL (≈ 74.1 µM)

Q: What about the MIC [6] of the same molecule?
A: 8 µg/mL (≈ 9.26 µM)

Q: What about the MIC [7, 13] of the same molecule?
A: 8 µg/mL (≈ 9.26 µM)

Q: And the MIC [8]?
A: > 64 µg/mL

Q: What about the MIC [9, 14] of the same molecule?
A: > 64 µg/mL

Q: For `CC[C@H]1OC(=O)[C@H](C)[C@@H](O)[C@H](C)[C@@H](O[C@@H]2O[C@H](C)C[C@H](N(C)C)[C@H]2O)[C@](C)(O)C[C@@H](C)CN(CCCNC(=O)NC(C)c2cccc3ccccc23)[C@H](C)[C@@H](O)[C@]1(C)O` (mixture of isomers), which MIC [1, 10] is on record?
A: 16 µg/mL

Q: What about the MIC [2, 11] of the same molecule?
A: < 0.125 µg/mL

Q: What about the MIC [3, 11] of the same molecule?
A: 16 µg/mL

Q: What about the MIC [4, 12] of the same molecule?
A: < 0.125 µg/mL

Q: What about the MIC [5, 12] of the same molecule?
A: 16 µg/mL

Q: And the MIC [6]?
A: 4 µg/mL

Q: And the MIC [7, 13]?
A: 4 µg/mL

Q: What about the MIC [8] of the same molecule?
A: 8 µg/mL

Q: What about the MIC [9, 14] of the same molecule?
A: 16 µg/mL

Q: Which results are given for `CC[C@H]1OC(=O)[C@H](C)[C@@H](O)[C@H](C)[C@@H](O[C@@H]2O[C@H](C)C[C@H](N(C)C)[C@H]2O)[C@](C)(O)C[C@@H](C)CN(CCCN(CCC#N)C(=O)NC(C)c2cccc3ccccc23)[C@H](C)[C@@H](O)[C@]1(C)O` (mixture of isomers)?
A: MIC [1, 10]: > 64 µg/mL; MIC [2, 11]: 4 µg/mL; MIC [3, 11]: 8 µg/mL; MIC [4, 12]: 4 µg/mL; MIC [5, 12]: > 64 µg/mL; MIC [6]: 4 µg/mL; MIC [7, 13]: 16 µg/mL; MIC [8]: 64 µg/mL; MIC [9, 14]: > 64 µg/mL

Q: With `CC[C@H]1OC(=O)[C@H](C)[C@@H](O[C@H]2C[C@@](C)(OC)[C@@H](O)[C@H](C)O2)[C@H](C)[C@@H](O[C@@H]2O[C@H](C)C[C@H](N(C)C)[C@H]2O)[C@](C)(O)C[C@@H](C)CN(C)[C@H](C)[C@@H](O)[C@]1(C)O` (stereo in doubt; 1) [AZITHROMYCIN] as the molecule, how does the MIC [1] read?
A: 0.5 µg/mL (≈ 0.668 µM)

Q: What about the MIC [3] of the same molecule?
A: 8 µg/mL (≈ 10.7 µM)

Q: And the MIC [5]?
A: 4 µg/mL (≈ 5.34 µM)

Q: And the MIC [6]?
A: < 0.125 µg/mL

Q: What about the MIC [7] of the same molecule?
A: 1 µg/mL (≈ 1.34 µM)

Q: What about the MIC [8] of the same molecule?
A: 8 µg/mL (≈ 10.7 µM)

Q: And the MIC [9]?
A: 2 µg/mL (≈ 2.67 µM)

Q: `CC[C@H]1OC(=O)[C@H](C)[C@@H](O[C@H]2C[C@@](C)(OC)[C@@H](O)[C@H](C)O2)[C@H](C)[C@@H](O[C@@H]2O[C@H](C)C[C@H](N(C)C)[C@H]2O)[C@](C)(O)C[C@@H](C)CN(C)[C@H](C)[C@@H](O)[C@]1(C)O` (stereo in doubt; 2) [AZITHROMYCIN] was tested. Which MIC [1] did it give?
A: >64 µg/mL

Q: What about the MIC [2] of the same molecule?
A: >64 µg/mL

Q: What about the MIC [3] of the same molecule?
A: >64 µg/mL

Q: And the MIC [4]?
A: >64 µg/mL

Q: And the MIC [5]?
A: >64 µg/mL

Q: And the MIC [7]?
A: 16 µg/mL (≈ 21.4 µM)

Q: And the MIC [9]?
A: 16 µg/mL (≈ 21.4 µM)

From ChEMBL document CHEMBL1641455, “Discovery of novel ureas and thioureas of 3-decladinosyl-3-hydroxy 15-membered azalides active against efflux-mediated resistant Streptococcus pneumoniae” (2011)
